Test [1] deals with T-Rex 293 cell line SC cells lacking increased expression of progesterone receptor isoform B protein. As to the kind of experiment: Cellular growth inhibition, T-Rex 293 SC cells without doxycycline, Example 47. In kind it is cell-based. To be noted: T-Rex 293 SC cells not exposed to doxycycline, 72 hours, CellTiter-Glo 2.0; Table 15 (Example 47). The method, then: (§1) The following types of cells were prepared for this experiment: (i) a T-Rex 293 cell line having increased expression of progesterone receptor isoform B protein due to exposure to doxycycline and (ii) a T-Rex 293 cell line lacking increased expression of progesterone receptor isoform B protein. Ability of the test compounds to inhibit proliferation of the foregoing cell types was evaluated according to the procedures set forth below.
(§2) The doxycycline-inducible progesterone receptor isoform B protein expressing cell line was established using the following protocol: T-Rex 293 cells were purchased from Invitrogen (Cat #R71007) and transfected using Lipofectamine 2000 with the wild-type progesterone receptor B protein sequence cloned into the pcDNA4/TO vector. Transfected cells were selected using 400 μg/mL Zeocin (Invitrogen Cat #R25001). Following selection, single clones were raised and maintained in Dulbecco's Modified Eagle Medium (DMEM) supplemented with 10% w/w Tetracycline-free fetal bovine serum (FBS) and 250 μg/mL Zeocin. Clones were analyzed for expression of progesterone receptor isoform B protein in the presence and absence of 10 ng/mL doxycycline (Sigma Cat #D9891), and a single doxycycline-inducible clone (hereinafter “SC”) was selected for use in downstream assays.
(§3) The SC cells were seeded on poly-D-lysine coated, black clear-bottom 384-well plates at 2500/well, in 25 μL Phenol Red Free Dulbecco's Modified Eagle Medium (DMEM) supplemented with 10% w/w charcoal-dextran treated fetal bovine serum (FBS) and 1% w/w pen-strep, with or without 10 ng/mL doxycycline. Pen-Strep is a commercially available mixture of penicillin G and streptomycin, which is used in mammalian cell culture media to prevent bacterial contamination. Phenol Red Free Dulbecco's Modified Eagle Medium (DMEM) supplemented with 10% w/w charcoal-dextran treated fetal bovine serum (FBS) and 1% w/w pen-strep, with or without 10 ng/mL doxycycline is herein referred to as Treatment Medium. Following seeding of cells in the plates, the plates were spun at 300×g for 30 seconds, then equilibrated to room temperature for 30 minutes, and then deposited in a humidified tissue culture incubator maintained at 37° C. with 5% CO2.
(§4) At 24 hours after seeding of the cells, dilutions of test compound were prepared in DMSO and dissolved in Treatment Medium, to achieve a final DMSO concentration of 0.5% w/w, thereby providing the Test Compound Solution. A 25 μL aliquot of the Test Compound Solution was added to cells in the well plates. An equal volume of a solution containing DMSO and Treatment Medium was used as a negative control. Following treatment of cells with Test Compound Solution or said equal volume of a solution containing DMSO and Treatment Medium, the plates were spun at 300×g for 30 seconds, and then left in an incubator for 72 hours.
(§5) At the end of the treatment duration, cell viability was quantified with CellTiter-Glo 2.0 reagent (Promega Cat #G9243). For this purpose, plates were equilibrated to room temperature for 30 minutes, and then 25 μL of CellTiter-Glo 2.0 reagent was added to cells in the plate wells. Plates were then agitated on a shaker for two minutes at 500 rpm and subsequently incubated at room temperature for 10 minutes. Following incubation, the plates were spun at 3000×g for 30 seconds, then sealed with an optical adhesive cover, and luminescence readings were measured with an EnVision Plate Reader (Perkin Elmer).
(§6) Data was normalized using zero luminescence for baseline. A four-parameter non-linear regression curve fit was applied to dose-response data in GraphPad Prism data analysis software to determine the half-maximal growth inhibitory concentration (GI50) for each test compound.

Test [2] in a line: Cellular growth inhibition, T-Rex 293 SC cells with doxycycline (progesterone receptor isoform B induced), Example 47. It is filed as cell-based. To be noted: progesterone receptor isoform B induced with 10 ng/mL doxycycline, 72 hours, CellTiter-Glo 2.0, Table 14 (Example 47). The protocol: as §1, §2, §3, §4, §5, §6
For orientation: ATP-based viability assays read luminescence as a measure of living cells.

Another test has as its target T1, progesterone receptor (Homo sapiens, UniProt P06401).
T1 construct: host or cells: T47D cells (cytosolic fraction)
T1 sequence (P06401 1-933): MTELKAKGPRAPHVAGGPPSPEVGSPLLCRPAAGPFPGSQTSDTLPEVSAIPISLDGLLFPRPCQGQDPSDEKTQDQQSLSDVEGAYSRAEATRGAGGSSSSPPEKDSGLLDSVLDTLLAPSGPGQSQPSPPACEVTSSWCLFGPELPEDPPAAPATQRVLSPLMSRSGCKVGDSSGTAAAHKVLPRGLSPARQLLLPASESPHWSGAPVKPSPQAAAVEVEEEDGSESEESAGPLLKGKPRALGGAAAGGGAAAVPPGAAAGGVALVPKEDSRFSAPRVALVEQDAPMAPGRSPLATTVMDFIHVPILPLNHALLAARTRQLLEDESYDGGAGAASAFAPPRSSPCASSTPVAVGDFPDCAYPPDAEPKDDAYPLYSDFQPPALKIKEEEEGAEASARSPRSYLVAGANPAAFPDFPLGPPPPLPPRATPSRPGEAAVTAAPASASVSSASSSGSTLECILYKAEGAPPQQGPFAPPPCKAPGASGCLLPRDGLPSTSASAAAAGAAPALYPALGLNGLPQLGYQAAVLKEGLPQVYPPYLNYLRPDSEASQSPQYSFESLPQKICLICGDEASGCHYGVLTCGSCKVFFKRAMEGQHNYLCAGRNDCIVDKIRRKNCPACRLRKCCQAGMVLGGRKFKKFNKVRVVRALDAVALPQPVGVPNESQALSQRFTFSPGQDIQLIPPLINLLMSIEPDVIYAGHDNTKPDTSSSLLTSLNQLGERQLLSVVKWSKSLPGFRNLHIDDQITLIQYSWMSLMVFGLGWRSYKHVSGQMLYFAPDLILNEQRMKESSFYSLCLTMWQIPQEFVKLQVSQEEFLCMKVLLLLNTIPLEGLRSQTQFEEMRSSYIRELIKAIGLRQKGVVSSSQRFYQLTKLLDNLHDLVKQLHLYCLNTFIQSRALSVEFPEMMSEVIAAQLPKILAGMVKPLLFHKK
As to the kind of experiment: PR Human Progesterone NHR Binding (Agonist Radioligand) Assay, T47D cytosol. To be noted: T47D cytosolic fractions, 0.5 nM [3H]progesterone, 1 hour at 4° C., Table 16. The method, then: Compounds were tested using the PR Human Progesterone NHR Binding (Agonist Radioligand) Assay, Cerep at Eurofins Discovery using a modified version of the protocol from Sarup et al. (Cancer Res 1988; 48:5071-5078). Briefly, cytosolic fractions of T47D cells were incubated with 0.5 nM [^3H]progesterone for 1 hour at 4° C. in the absence or presence of the test compound. Nonspecific binding was determined in the presence of 1 μM promegestone. Reactions were subjected to scintillation counting. Results are expressed as a percent inhibition of the control radioligand specific binding.

Structures are written as SMILES.

The term GI50 denotes the concentration at which growth is held to half of that of the control. A low value points to greater sensitivity of the cells. For the molecule `Cc1sc2c(c1C)C(c1ccc(Cl)cc1)=N[C@@H](CC(=O)NCCOC1CCN(c3ncc(C(=O)N[C@H]4C(C)(C)[C@H](Oc5ccc(C#N)c(Cl)c5)C4(C)C)cn3)CC1)c1nnc(C)n1-2` [Compound I-6], the GI50 in test [1] and in test [2] was less than 500 nM each time. What is called Ki is a dissociation constant, usually derived from enzyme kinetics or from competition with a known ligand. Low values mean higher affinity, high ones lower affinity. Turning to `Cc1sc2c(c1C)C(c1ccc(CC3CC4(CCN(c5ncc(C(=O)N[C@H]6C(C)(C)[C@H](Oc7ccc(C#N)c(Cl)c7)C6(C)C)cn5)CC4)C3)cc1)=N[C@@H](C)c1nnc(C)n1-2` [Compound I-436], the Ki at progesterone receptor was 50 to 500 nM. Consider `Cc1sc2c(c1C)C(c1ccc(OC3CC4(CCN(c5ncc(C(=O)N[C@H]6C(C)(C)[C@H](Oc7ccc(C#N)c(Cl)c7)C6(C)C)cn5)CC4)C3)cc1)=N[C@@H](Cc1ncco1)c1nnc(C)n1-2` [Compound I-49, N-[3-(3-chloro-4-cyano-phenoxy)-2,2,4,4-tetramethyl-cyclobutyl]-2-[2-[4-[(9S)-4,5,13-trimethyl-9-(oxazol-2-ylmethyl)-3-thia-1,8,11,12-tetrazatricyclo[8.3.0.02,6]trideca-2(6),4,7,10,12-pentaen-7-yl]phenoxy]-7-azaspiro[3.5]nonan-7-yl]pyrimidine-5-carboxamide], for which the GI50 in test [1] was 500 to 1500 nM; in test [2], less than 500 nM.

As to `Cc1sc2c(c1C)C(c1ccc(Cl)cc1)=N[C@@H](CC(=O)NCCOCCOCCOCCOCCOC1CCN(c3ncc(C(=O)N[C@H]4C(C)(C)[C@H](Oc5ccc(C#N)c(Cl)c5)C4(C)C)cn3)CC1)c1nnc(C)n1-2` [Compound I-8], the values for the GI50 in test [1] and in test [2] were 500 to 1500 nM and less than 500 nM, respectively.

Turning to `Cc1sc2c(c1C)C(c1ccc(Cl)cc1)=N[C@@H](CC(=O)NCCOCCOCCOCCOCCOCCOCCN(C)c1ncc(C(=O)N[C@H]3C(C)(C)[C@H](Oc4ccc(C#N)c(Cl)c4)C3(C)C)cn1)c1nnc(C)n1-2` [Compound I-4], the figures for the concentration for 50% growth inhibition (GI50) in test [1] and in test [2] were 1500 to 3000 nM and less than 500 nM, respectively. Consider `Cc1sc2c(c1C)C(c1ccc(N3CC(C4CCN(c5ncc(C(=O)N[C@H]6C(C)(C)[C@H](Oc7ccc(C#N)c(Cl)c7)C6(C)C)cn5)CC4)C3)cc1)=N[C@@H](C)c1nnc(C)n1-2` [Compound I-271], for which the Ki at progesterone receptor is less than 50 nM. Consider `CCNC(=O)C[C@@H]1N=C(c2cccc(OCCOCCOCCOC3CCN(c4ncc(C(=O)N[C@H]5C(C)(C)[C@H](Oc6ccc(C#N)c(Cl)c6)C5(C)C)cn4)CC3)c2)c2c(sc(C)c2C)-n2c(C)nnc21` [Compound I-48, N-((1r,3r)-3-(3-chloro-4-cyanophenoxy)-2,2,4,4-tetramethylcyclobutyl)-2-(4-(2-(2-(2-(3-((S)-6-(2-(ethylamino)-2-oxoethyl)-2,3,9-trimethyl-6H-thieno[3,2-f][1,2,4]triazolo[4,3-a][1,4]diazepin-4-yl)phenoxy)ethoxy)ethoxy)ethoxy)piperidin-1-yl)pyrimidine-5-carboxamide], for which the GI50 in test [1] is more than 3000 nM. As to `Cc1sc2c(c1C)C(c1ccc(Cl)cc1)=N[C@@H](CC(=O)NCCOCCOCCOCCOC1CCN(c3ncc(C(=O)N[C@H]4C(C)(C)[C@H](Oc5ccc(C#N)c(Cl)c5)C4(C)C)cn3)CC1)c1nnc(C)n1-2` [Compound I-11], the GI50 in test [1] and in test [2] was less than 500 nM in each case.

For `Cc1sc2c(c1C)C(c1ccc(Cl)cc1)=N[C@@H](CC(=O)NCCOCCOCCOCCOCCN(C)c1ncc(C(=O)N[C@H]3C(C)(C)[C@H](Oc4ccc(C#N)c(Cl)c4)C3(C)C)cn1)c1nnc(C)n1-2` [Compound I-3, N-((1r,3r)-3-(3-chloro-4-cyanophenoxy)-2,2,4,4-tetramethylcyclobutyl)-2-((1-((S)-4-(4-chlorophenyl)-2,3,9-trimethyl-6H-thieno[3,2-f][1,2,4]triazolo[4,3-a][1,4]diazepin-6-yl)-2-oxo-6,9,12,15-tetraoxa-3-azaheptadecan-17-yl)(methyl)amino)pyrimidine-5-carboxamide], the GI50 in test [1] is 1500 to 3000 nM; in test [2], less than 500 nM. In the same order, the values of `Cc1sc2c(c1C)C(c1ccc(Cl)cc1)=N[C@H](CC(=O)NCCOCCOCCOCCOCCOC1CCN(c3ncc(C(=O)N[C@H]4C(C)(C)[C@H](Oc5ccc(C#N)c(Cl)c5)C4(C)C)cn3)CC1)c1nnc(C)n1-2` [Compound I-14] are 1500 to 3000 nM and less than 500 nM. Take `Cc1sc2c(c1C)C(c1ccc(Cl)cc1)=N[C@@H](CC(=O)NCCCCCOC1CCN(c3ncc(C(=O)N[C@H]4C(C)(C)[C@H](Oc5ccc(C#N)c(Cl)c5)C4(C)C)cn3)CC1)c1nnc(C)n1-2` [Compound I-22, N-((1r,3r)-3-(3-chloro-4-cyanophenoxy)-2,2,4,4-tetramethylcyclobutyl)-2-(4-((5-(2-((S)-4-(4-chlorophenyl)-2,3,9-trimethyl-6H-thieno[3,2-A][1,2,4]triazolo[4,3-a][1,4]diazepin-6-yl)acetamido)pentyl)oxy)piperidin-1-yl)pyrimidine-5-carboxamide]: the GI50 in test [1] is more than 3000 nM. Turning to `Cc1sc2c(c1C)C(c1ccc(Cl)cc1)=N[C@H](CC(=O)NCCOCCOCCOCCOC1CCN(c3ncc(C(=O)N[C@H]4C(C)(C)[C@H](Oc5ccc(C#N)c(Cl)c5)C4(C)C)cn3)CC1)c1nnc(C)n1-2` [Compound I-13], the GI50 in test [1] is 1500 to 3000 nM; in test [2], less than 500 nM. On to `Cc1sc2c(c1C)C(c1ccc(Cl)cc1)=N[C@H](CC(=O)NCCOCCOCCOCCOCCN(C)c1ncc(C(=O)N[C@H]3C(C)(C)[C@H](Oc4ccc(C#N)c(Cl)c4)C3(C)C)cn1)c1nnc(C)n1-2` [Compound I-19], for which the GI50 in test [1] fell in the range of 1500 to 3000 nM; in test [2], 500 to 1500 nM. In the same order, the values of `Cc1sc2c(c1C)C(c1ccc(Cl)cc1)=N[C@@H](CC(=O)NCCOCCOCCOCC1CCN(c3ncc(C(=O)N[C@H]4C(C)(C)[C@H](Oc5ccc(C#N)c(Cl)c5)C4(C)C)cn3)CC1)c1nnc(C)n1-2` [Compound I-17] are more than 3000 nM and 500 to 1500 nM.

The record behind these values is patent US20260062422A1 (Halda Therapeutics OpCo, Inc., priority 2022, published 2026).
